The source of these data is ChEMBL document CHEMBL5385916, “Discovery of a novel series of pyridone amides as NaV1.8 inhibitors” (Bioorg Med Chem Lett, 2024).

The source made the active and inactive calls. No cut-off for these calls is given here.

The target in series [1] is T1, Sodium channel protein type 10 subunit alpha (Homo sapiens, UniProt Q9Y5Y9). The experiment in a line: Binding affinity to Nav1.8 (unknown origin) expressed in HEK293T cells assessed as retention time by cell membrane chromatography analysis. Format: cell membranes.
Target sequence in this assay (Q9Y5Y9 whole entry, looked up): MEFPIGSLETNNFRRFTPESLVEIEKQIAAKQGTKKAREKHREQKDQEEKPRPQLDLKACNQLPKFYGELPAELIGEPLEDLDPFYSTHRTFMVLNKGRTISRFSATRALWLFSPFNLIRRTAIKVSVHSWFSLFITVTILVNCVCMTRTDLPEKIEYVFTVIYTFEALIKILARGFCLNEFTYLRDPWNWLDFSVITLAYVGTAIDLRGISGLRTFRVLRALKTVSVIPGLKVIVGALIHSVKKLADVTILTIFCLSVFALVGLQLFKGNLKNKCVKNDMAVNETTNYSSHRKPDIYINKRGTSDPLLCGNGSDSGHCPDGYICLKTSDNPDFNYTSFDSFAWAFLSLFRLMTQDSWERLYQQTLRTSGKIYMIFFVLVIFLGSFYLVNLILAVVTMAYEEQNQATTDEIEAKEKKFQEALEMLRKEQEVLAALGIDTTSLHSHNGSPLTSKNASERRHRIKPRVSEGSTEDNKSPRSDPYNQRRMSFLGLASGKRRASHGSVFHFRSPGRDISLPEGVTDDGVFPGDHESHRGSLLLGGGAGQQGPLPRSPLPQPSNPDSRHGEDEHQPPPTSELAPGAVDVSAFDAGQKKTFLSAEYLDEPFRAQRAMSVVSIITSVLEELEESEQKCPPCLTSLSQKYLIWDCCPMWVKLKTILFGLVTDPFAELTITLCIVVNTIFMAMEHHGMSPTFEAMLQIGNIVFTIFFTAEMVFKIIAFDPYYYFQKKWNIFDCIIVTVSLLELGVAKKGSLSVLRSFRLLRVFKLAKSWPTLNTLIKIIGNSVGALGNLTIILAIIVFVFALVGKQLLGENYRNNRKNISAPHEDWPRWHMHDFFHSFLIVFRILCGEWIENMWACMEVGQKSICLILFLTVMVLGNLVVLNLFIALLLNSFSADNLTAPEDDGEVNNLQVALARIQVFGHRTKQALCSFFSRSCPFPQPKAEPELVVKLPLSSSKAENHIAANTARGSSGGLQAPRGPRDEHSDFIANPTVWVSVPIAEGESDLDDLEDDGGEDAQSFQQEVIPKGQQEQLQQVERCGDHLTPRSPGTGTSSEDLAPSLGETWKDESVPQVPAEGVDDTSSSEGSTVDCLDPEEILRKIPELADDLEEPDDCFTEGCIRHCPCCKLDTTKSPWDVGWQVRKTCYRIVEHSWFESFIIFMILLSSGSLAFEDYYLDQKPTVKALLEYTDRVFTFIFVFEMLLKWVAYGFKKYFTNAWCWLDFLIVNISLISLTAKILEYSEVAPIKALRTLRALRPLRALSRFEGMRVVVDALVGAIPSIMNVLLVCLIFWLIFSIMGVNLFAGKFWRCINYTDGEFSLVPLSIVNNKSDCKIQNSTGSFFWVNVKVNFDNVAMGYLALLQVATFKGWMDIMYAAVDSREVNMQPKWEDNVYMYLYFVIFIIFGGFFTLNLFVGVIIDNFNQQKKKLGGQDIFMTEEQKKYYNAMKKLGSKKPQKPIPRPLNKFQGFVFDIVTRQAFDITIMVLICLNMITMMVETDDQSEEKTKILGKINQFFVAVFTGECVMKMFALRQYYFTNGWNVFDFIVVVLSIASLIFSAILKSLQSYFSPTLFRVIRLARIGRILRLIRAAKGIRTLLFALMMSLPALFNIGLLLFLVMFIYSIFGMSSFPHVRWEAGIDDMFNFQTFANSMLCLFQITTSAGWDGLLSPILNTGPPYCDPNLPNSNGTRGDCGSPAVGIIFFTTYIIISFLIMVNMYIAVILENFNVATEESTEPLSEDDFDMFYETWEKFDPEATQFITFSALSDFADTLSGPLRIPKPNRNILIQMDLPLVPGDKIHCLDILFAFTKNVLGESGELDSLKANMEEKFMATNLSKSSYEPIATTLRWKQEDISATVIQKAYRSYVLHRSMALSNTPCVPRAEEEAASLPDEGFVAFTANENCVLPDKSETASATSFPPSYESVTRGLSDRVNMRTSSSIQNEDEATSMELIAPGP
Series [2] addresses Sodium channel protein type 5 subunit alpha (Homo sapiens, UniProt Q14524). Briefly: Binding affinity to Nav1.5 (unknown origin) expressed in HEK293T cells assessed as retention time by cell membrane chromatography analysis. It counts as cell membranes.
Series [3] is described as follows: Selectivity ratio of binding affinity to Nav1.8 (unknown origin) expressed in HEK293T cells assessed as retention time to binding affinity to Nav1.5 (unknown origin) expressed in HEK293T cells assessed as retention time. It counts as cell-based.
The target in series [4] is T1, Sodium channel protein type 10 subunit alpha. The experiment in a line: Inhibition of Nav1.8 (unknown origin) at 10 uM under half inaction state by whole-cell patch clamp analysis relative to control.
Target sequence in this assay (Q9Y5Y9 whole entry, looked up): as above
For series [5] the target is unchanged. Briefly: Inhibition of Nav1.8 (unknown origin) at 10 uM under resting state by whole-cell patch clamp analysis relative to control.
Target sequence in this assay (Q9Y5Y9 whole entry, looked up): as above
Series [6] concerns Mus musculus. Briefly: Analgesic activity in CFA-induced inflammatory pain mouse model assessed as paw withdrawal response to von frey stimuli at 100 microg/kg, ip. Format: functional, organism-based. The following applies: dose 100.0 µg/kg.
Series [7] relates to Mus musculus. The experiment in a line: Analgesic activity in CFA-induced inflammatory pain mouse model assessed as paw withdrawal response to von frey stimuli at 100 microg/kg, ip measured for 5 hrs. It counts as functional, organism-based. The following applies: dose 100.0 µg/kg.
The subject of series [8] is Mus musculus. The experiment in a line: Analgesic activity in CFA-induced inflammatory pain mouse model assessed as paw withdrawal response to von frey stimuli at 100 microg/kg, ip measured for 9 hrs. It counts as functional, organism-based. The following applies: dose 100.0 µg/kg.
In series [9] the test system is Mus musculus. Briefly: Analgesic activity in chronic constriction injury mouse model at 100 microg/kg, ip administered for 10 to 14 days. Format: functional, organism-based. Conditions: dose 100.0 µg/kg, time 10-14 day.
Series [10] has as its target T1, Sodium channel protein type 10 subunit alpha. The experiment in a line: Inhibition of Nav1.8 in HEK293 cells under half inaction state. Format: cell-based.
Series [11] shares this target. Briefly: Inhibition of Nav1.8 in HEK293 cells under resting state. It counts as cell-based.
Series [12] concerns Mus musculus. Briefly: Analgesic activity in chronic constriction injury mouse model assessed as fold increase in AUC at 100 microg/kg, ip administered for 8 days relative to model group. It counts as functional. The following applies: dose 100 µg/kg, time 8 day.
Series [13] in a line: Toxicity in mouse assessed as adverse effects at 100 microg/kg, ip administered for 8 days and measured upto 9 hrs. It counts as organism-based. The following applies: in vivo, 0.1 mg/kg, 201 h, dose 100 µg/kg.
The test system of series [14] is Mus musculus. The experiment in a line: Analgesic activity in cold pain hypersensitivity mouse model at 100 microg/kg, ip measured for 8 days. It counts as functional, organism-based. Conditions: dose 100.0 µg/kg, time 8.0 day.
The subject of series [15] is Mus musculus. The experiment in a line: Analgesic activity in CFA-induced inflammatory pain mouse model assessed as paw withdrawal response to von frey stimuli at 100 microg/kg, po administered for 8 days and measured upto 7 hrs. The following applies: dose 100.0 µg/kg, time <= 199.0 hrs. It counts as functional, organism-based.
For series [16], the system named is Mus musculus. Briefly: Analgesic activity in chronic constriction injury mouse model assessed as paw withdrawal response to von frey stimuli at 100 microg/kg, ip administered for 8 days and measured upto 9 hrs. It counts as functional, organism-based. Conditions: dose 100.0 µg/kg, time <= 201.0 hrs.

Chain of Sodium channel protein type 5 subunit alpha (Q14524 whole entry): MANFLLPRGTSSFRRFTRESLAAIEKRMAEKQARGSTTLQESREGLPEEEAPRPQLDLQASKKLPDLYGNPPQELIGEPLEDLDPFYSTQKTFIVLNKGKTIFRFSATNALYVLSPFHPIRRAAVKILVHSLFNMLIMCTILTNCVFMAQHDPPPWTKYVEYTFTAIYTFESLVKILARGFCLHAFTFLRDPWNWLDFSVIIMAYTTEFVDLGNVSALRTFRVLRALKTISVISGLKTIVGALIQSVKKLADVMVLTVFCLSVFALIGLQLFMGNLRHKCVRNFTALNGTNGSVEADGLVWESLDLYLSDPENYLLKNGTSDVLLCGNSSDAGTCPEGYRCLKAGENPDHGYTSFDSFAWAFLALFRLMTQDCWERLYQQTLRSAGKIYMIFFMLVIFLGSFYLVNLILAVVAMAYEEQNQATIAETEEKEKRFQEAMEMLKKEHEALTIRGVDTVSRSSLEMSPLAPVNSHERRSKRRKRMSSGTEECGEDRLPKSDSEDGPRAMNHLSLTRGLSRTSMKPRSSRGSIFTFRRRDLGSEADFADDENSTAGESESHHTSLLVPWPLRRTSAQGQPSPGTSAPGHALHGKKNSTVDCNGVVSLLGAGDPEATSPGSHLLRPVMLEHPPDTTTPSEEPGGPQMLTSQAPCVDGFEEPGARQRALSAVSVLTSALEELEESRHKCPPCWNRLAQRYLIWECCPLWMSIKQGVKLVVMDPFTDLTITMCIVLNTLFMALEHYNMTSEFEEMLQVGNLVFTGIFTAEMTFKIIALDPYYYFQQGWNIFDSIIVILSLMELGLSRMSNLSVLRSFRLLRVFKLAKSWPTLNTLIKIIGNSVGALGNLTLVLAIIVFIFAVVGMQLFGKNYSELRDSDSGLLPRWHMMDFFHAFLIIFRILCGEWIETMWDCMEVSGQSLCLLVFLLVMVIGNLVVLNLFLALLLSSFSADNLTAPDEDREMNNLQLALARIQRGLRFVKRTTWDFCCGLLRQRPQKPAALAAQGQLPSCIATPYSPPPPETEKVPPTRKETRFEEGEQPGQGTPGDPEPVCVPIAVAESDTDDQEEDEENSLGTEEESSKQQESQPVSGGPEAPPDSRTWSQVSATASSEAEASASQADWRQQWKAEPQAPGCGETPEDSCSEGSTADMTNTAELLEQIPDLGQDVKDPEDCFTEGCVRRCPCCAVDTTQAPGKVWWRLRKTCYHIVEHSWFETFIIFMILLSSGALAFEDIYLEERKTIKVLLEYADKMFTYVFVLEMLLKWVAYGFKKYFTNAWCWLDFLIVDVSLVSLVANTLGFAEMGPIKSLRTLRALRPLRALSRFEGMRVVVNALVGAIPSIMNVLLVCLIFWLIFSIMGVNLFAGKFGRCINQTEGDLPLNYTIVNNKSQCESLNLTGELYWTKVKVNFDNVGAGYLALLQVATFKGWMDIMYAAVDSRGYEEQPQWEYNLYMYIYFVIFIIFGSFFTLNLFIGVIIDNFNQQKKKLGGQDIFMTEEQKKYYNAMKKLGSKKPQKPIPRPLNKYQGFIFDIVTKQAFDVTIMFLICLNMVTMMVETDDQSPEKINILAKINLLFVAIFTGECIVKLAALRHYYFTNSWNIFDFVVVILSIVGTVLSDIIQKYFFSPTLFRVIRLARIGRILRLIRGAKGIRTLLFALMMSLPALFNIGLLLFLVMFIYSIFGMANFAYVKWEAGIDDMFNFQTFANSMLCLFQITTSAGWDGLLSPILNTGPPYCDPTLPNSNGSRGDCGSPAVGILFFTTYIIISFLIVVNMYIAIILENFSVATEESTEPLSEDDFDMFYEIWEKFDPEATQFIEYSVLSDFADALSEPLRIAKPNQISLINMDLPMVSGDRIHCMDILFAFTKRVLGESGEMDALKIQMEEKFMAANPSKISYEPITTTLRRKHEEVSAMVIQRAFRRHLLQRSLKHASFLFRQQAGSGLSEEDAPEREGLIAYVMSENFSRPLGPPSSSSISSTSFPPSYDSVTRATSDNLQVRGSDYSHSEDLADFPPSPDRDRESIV

In the case of `Cc1cc(F)ccc1Oc1cc(C(F)(F)F)ccc1C(=O)Nc1ccccc1`, the Retention time in series [1] stood at 5.8 min. For the same molecule, the Retention_time in series [2] was 7.3 min. Also, in series [3], the Selectivity ratio amounted to 0.79.

For `O=C(Nc1cc[nH]c(=O)c1)c1ccc(C(F)(F)F)cc1Oc1ccccc1`, the Retention time in series [1] worked out at 4.7 min. Also, the Retention_time in [2] stood at 8.6 min. Further, the Selectivity ratio in [3] stood at 0.55.

For `Cc1cc(F)ccc1Oc1cc([N+](=O)[O-])ccc1C(=O)Nc1cc[nH]c(=O)c1`, the Retention time in series [1] was 4.5 min. Also, in [2], the Retention_time stood at 4.5 min. Also, the Selectivity ratio in series [3] is 0.52.

As to `Cc1cc(F)ccc1Oc1cc(C(F)(F)F)ccc1C(=O)Nc1ccc2cc[nH]c2c1`, the inhibition in [4] was 1.55%; in series [5], -0.26%. Further, the Retention time in [1] was above 60 min. Besides, the Retention_time in series [2] is above 60 min. For the same molecule, in [3], the Selectivity ratio turned out to be 1. The result in the series on Mus musculus [6] was Active.

For `COc1cc(NC(=O)c2ncc(C(F)(F)F)cc2Oc2ccc(F)cc2C)ccn1`, the inhibition in series [4] turned out to be 84.5%; in series [5], 82.5%. The outcome in the series with Mus musculus [7], with Mus musculus [8] and with Mus musculus [6] was Active. The Retention time in series [1] worked out at 22 min. The Retention_time in [2] was 12.3 min. The Selectivity ratio in series [3] amounted to 1.79.

For the molecule `O=C(Nc1cc[nH]c(=O)c1)c1ccc(C(F)(F)F)cc1Sc1ccc(F)cc1`, the results for the inhibition in series [4] and in [5] were 88.8% and 87.5%, respectively. Further, the outcome in the series on Mus musculus [7], in the series with Mus musculus [8] and in the series on Mus musculus [6] was Active. For the same molecule, in series [1], the Retention time is 9.2 min. Besides, the Retention_time in [2] is on record as 16.1 min. In addition, in series [3], the Selectivity ratio turned out to be 0.57.

Consider `Cc1cc(F)ccc1Oc1cc(C(F)(F)F)ccc1C(=O)Nc1cc[nH]c(=O)c1`, for which, in [1], the Retention time stood at 11.8 min. Further, in series [2], the Retention_time worked out at 20.6 min. For the same molecule, in series [3], the Selectivity ratio amounted to 0.57.

With `O=C(Nc1cc[nH]c(=O)c1)c1ccc(C(F)(F)F)cc1Oc1ccncc1`, the Retention time in [1] is 1.6 min. The Retention_time in series [2] turned out to be 1.7 min. Also, the Selectivity ratio in series [3] is 0.94.

For `COc1cccc(NC(=O)c2ccc(C(F)(F)F)cc2Oc2ccc(F)cc2C)c1`, the Retention time in series [1] amounted to 4.6 min. Also, the Retention_time in [2] is recorded as 7.3 min. In addition, the Selectivity ratio in series [3] was 0.63.

Consider `O=C(Nc1cc[nH]c(=O)c1)c1ccc(C(F)(F)F)cc1Oc1ccc(F)nc1`, for which the Retention time in series [1] came out at 2.4 min. For the same molecule, the Retention_time in series [2] is recorded as 2.6 min. For the same molecule, the Selectivity ratio in [3] came out at 0.92.

As to `O=C(Nc1cc[nH]c(=O)c1)c1ccc(C(F)(F)F)cc1N1CCC(C(F)(F)F)CC1`, the inhibition was 92.2% in [4], 93.4% in series [5], “Dose-Dependent Effect” in series [10] (dose 0.1-10 µM) and “Dose-Dependent Effect” in series [11] (dose 0.1-10 µM). Also, the outcome in the series with Mus musculus [9], with Mus musculus [7], in the series on Mus musculus [8], in the series with Mus musculus [14], in the series with Mus musculus [15] and in the series on Mus musculus [16] was Active. For the same molecule, the result with Mus musculus [6] was Active. The IC50 worked out at 0.472 µM in series [10] and 0.513 µM in series [11]. Also, the Retention time in [1] was found to be 10.5 min. Also, in series [2], the Retention_time is recorded as 11.7 min. Further, in [3], the Selectivity ratio came to 0.9. Also, the “fold change (FC)” value in the series on Mus musculus [12] is 2. For the same molecule, the Activity result in series [13] is listed as “Non-Toxic”.

With `COc1cc(NC(=O)c2ccc(C(F)(F)F)cc2Oc2ccc(F)cc2C)ccn1`, the Retention time in series [1] is 6.1 min. Further, the Retention_time in series [2] came out at 17.8 min. Further, in series [3], the Selectivity ratio turned out to be 0.34.

Consider `O=C(Nc1cc[nH]c(=O)c1)c1ccc(C(F)(F)F)cc1OC1CC=CC1`, for which, in [1], the Retention time came to 10.1 min. Besides, in series [2], the Retention_time is 16.4 min. Moreover, in [3], the Selectivity ratio was 0.61.

`Cc1cc(F)ccc1Oc1cc(C(F)(F)F)ccc1C(=O)NCc1ccccc1`: the Retention time in [1] is 56.1 min. The Retention_time in series [2] is given as above 60 min. For the same molecule, in series [3], the Selectivity ratio was 0.94.

`Cc1cc(F)ccc1Oc1cc(C(F)(F)F)ccc1C(=O)Nc1ccncc1`: the Retention time in series [1] worked out at 30 min. Besides, the Retention_time in [2] amounted to 3 min. The Selectivity ratio in series [3] came to 10. The outcome with Mus musculus [6] was Active.

As for `Cc1cc(F)ccc1Oc1cc(C(F)(F)F)ccc1C(=O)NCc1cc[nH]c(=O)c1`, the Retention time in series [1] amounted to 6 min. In series [2], the Retention_time was determined as 9.1 min. In addition, the Selectivity ratio in [3] worked out at 0.66.

Turning to `O=C(Nc1cc[nH]c(=O)c1)c1ccc(C(F)(F)F)cc1OC1CCC(F)(F)CC1`, in series [1], the Retention time came out at 3.8 min. Also, in series [2], the Retention_time came out at 5.8 min. In addition, the Selectivity ratio in series [3] was determined as 0.66.

As for `Cc1cc(F)ccc1Oc1cc(C(F)(F)F)ccc1C(=O)Nc1cccc(O)c1`, in series [1], the Retention time amounted to 36.5 min. For the same molecule, the Retention_time in series [2] is recorded as 7.1 min. For the same molecule, the Selectivity ratio in series [3] was 5.14.

As to `COc1cc(NC(=O)c2ccc([N+](=O)[O-])cc2Oc2ccc(F)cc2C)ccn1`, in [1], the Retention time was determined as 4.6 min. Moreover, in series [2], the Retention_time is reported as 4.6 min. Further, the Selectivity ratio in series [3] was determined as 0.62.

For the molecule `CN1CCN(c2cc(C(F)(F)F)ccc2C(=O)Nc2cc[nH]c(=O)c2)CC1`, in series [1], the Retention time worked out at 53.8 min. For the same molecule, in series [2], the Retention_time was 1.3 min. For the same molecule, in series [3], the Selectivity ratio was found to be 41.4. Further, the result in the series on Mus musculus [6] was Active.
